Source: patent US6355799B1, “Substituted benzene compounds, process for their preparation, and herbicidal and defoliant compositions containing them” (ISK Americas Incorporated, priority 1997, dated 2002)

Columns and labels:
Type in all cases: in vivo
[1] = tested on: redroot pigweed (Amaranthus retroflexus, AMARE); experiment: Pre-emerge test, greenhouse herbicide activity screening; details: for Pre-emerge Herbicidal Activity AMARE: phytotoxicity rating 0-100, 14 days after application; for phytotoxicity rating AMARE: pre-emerge, 14 days after application, scale 0-100
Outline: (§1)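 Herbicidal damage is scored 0 (none) to 100 (complete plant death) two weeks after a simulated field spray. Rates span 15–1000 g ai/ha, delivered in acetone at 187 l/ha. For post-emergence treatments, plants have 2–3 leaves and the spray carries 0.25% v/v non-ionic surfactant.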

[2] = tested on: barnyardgrass (Echinochloa crus-galli, ECHCG); experiment: as above; details: for Pre-emerge Herbicidal Activity ECHCG: phytotoxicity rating 0-100, 14 days after application; for phytotoxicity rating ECHCG: pre-emerge, 14 days after application, scale 0-100
Outline: as §1

[3] = tested on: common ragweed (Ambrosia artemisizfolia L., AMBEL); experiment: as above; details: for Pre-emerge Herbicidal Activity AMBEL: phytotoxicity rating 0-100, 14 days after application; for phytotoxicity rating AMBEL: pre-emerge, 14 days after application, scale 0-100
Outline: as §1

[4] = tested on: green foxtail (Setaria viridis, SETVI); experiment: as above; details: for Pre-emerge Herbicidal Activity SETVI: phytotoxicity rating 0-100, 14 days after application; for phytotoxicity rating SETVI: pre-emerge, 14 days after application, scale 0-100
Outline: as §1

[5] = tested on: ivyleaf morningglory (Ipomoea hederacea, IPOHE); experiment: as above; details: for Pre-emerge Herbicidal Activity IPOHE: phytotoxicity rating 0-100, 14 days after application; for phytotoxicity rating IPOHE: pre-emerge, 14 days after application, scale 0-100
Outline: as §1

[6] = tested on: johnsongrass (Sorghum halepense, SORHA); experiment: as above; details: for Pre-emerge Herbicidal Activity SORHA: phytotoxicity rating 0-100, 14 days after application; for phytotoxicity rating SORHA: pre-emerge, 14 days after application, scale 0-100
Outline: as §1

[7] = tested on: lambsquarters (Chenopodium album, CHEAL); experiment: as above; details: for Pre-emerge Herbicidal Activity CHEAL: phytotoxicity rating 0-100, 14 days after application; for phytotoxicity rating CHEAL: pre-emerge, 14 days after application, scale 0-100
Outline: as §1

[8] = tested on: large crabgrass (Digitaria sanguinalis, DIGSA); experiment: as above; details: for Pre-emerge Herbicidal Activity DIGSA: phytotoxicity rating 0-100, 14 days after application; for phytotoxicity rating DIGSA: pre-emerge, 14 days after application, scale 0-100
Outline: as §1

[9] = tested on: sicklepod (Cassia obtusifolia, CASOB); experiment: as above; details: for Pre-emerge Herbicidal Activity CASOB: phytotoxicity rating 0-100, 14 days after application; for phytotoxicity rating CASOB: pre-emerge, 14 days after application, scale 0-100
Outline: as §1

[10] = tested on: velvetleaf (Abutilon theophrasti, ABUTH); experiment: as above; details: for Pre-emerge Herbicidal Activity ABUTH: phytotoxicity rating 0-100, 14 days after application; for phytotoxicity rating ABUTH: pre-emerge, 14 days after application, scale 0-100
Outline: as §1

[11] = tested on: field corn (Zea mays L., var. Dekalb 535, CORN); experiment: Pre-emerge test, crop safety; details: for Pre-emerge Herbicidal Activity CORN: crop damage rating 0-100, 14 days after application; for phytotoxicity rating CORN (crop damage): pre-emerge, 14 days after application, scale 0-100
Outline: (§2)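 Fourteen days after spraying, crop and weed injury was graded visually from 0, no effect, to 100, every plant dead. Test substances were dissolved in acetone and applied at 15–1000 g ai/ha with a flat-fan nozzle. Application was either pre-emergence, one day after sowing, or post-emergence at the 2–3 leaf stage.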

[12] = tested on: upland rice (Oryza sp., var. Tebonnet, RICE); experiment: Pre-emerge test, crop safety; details: for Pre-emerge Herbicidal Activity RICE: crop damage rating 0-100, 14 days after application; for phytotoxicity rating RICE (crop damage): pre-emerge, 14 days after application, scale 0-100
Outline: as §2

[13] = tested on: barnyardgrass (Echinochloa crus-galli, ECHCG); experiment: Post-emerge test, greenhouse herbicide activity screening; details: post-emerge, 14 days after application, rating scale 0-100
Outline: (§3)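 Compounds in acetone were track-sprayed at 187 l/ha, 15–1000 g ai/ha, onto sandy loam pots. Pre-emerge seeds were sown one day before spraying, with surface watering afterwards. Post-emerge plants were at the 2–3 leaf stage and sprayed with 0.25% v/v non-ionic surfactant. Injury was rated 0–100 at 14 days.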

[14] = tested on: green foxtail (Setaria viridis, SETVI); experiment: as above; details: post-emerge, 14 days after application, rating scale 0-100
Outline: as §3

[15] = tested on: ivyleaf morningglory (Ipomoea hederacea, IPOHE); experiment: as above; details: post-emerge, 14 days after application, rating scale 0-100
Outline: as §3

[16] = tested on: johnsongrass (Sorghum halepense, SORHA); experiment: as above; details: post-emerge, 14 days after application, rating scale 0-100
Outline: as §3

[17] = tested on: lambsquarters (Chenopodium album, CHEAL); experiment: as above; details: post-emerge, 14 days after application, rating scale 0-100
Outline: as §3

[18] = tested on: large crabgrass (Digitaria sanguinalis, DIGSA); experiment: as above; details: post-emerge, 14 days after application, rating scale 0-100
Outline: as §3

[19] = tested on: redroot pigweed (Amaranthus retroflexus, AMARE); experiment: as above; details: post-emerge, 14 days after application
Outline: as §3

[20] = tested on: sicklepod (Cassia obtusifolia, CASOB); experiment: as above; details: post-emerge, 14 days after application, rating scale 0-100
Outline: as §3

[21] = tested on: velvetleaf (Abutilon theophrasti, ABUTH); experiment: as above; details: post-emerge, 14 days after application, rating scale 0-100
Outline: as §3

[22] = tested on: field corn (Zea mays L., var. Dekalb 535, CORN); experiment: Post-emerge test, crop safety; details: post-emerge, 14 days after application, rating scale 0-100
Outline: as §1

[23] = tested on: upland rice (Oryza sp., var. Tebonnet, RICE); experiment: Post-emerge test, crop safety; details: post-emerge, 14 days after application, rating scale 0-100
Outline: as §1

[24] = 250 g ai/ha, rating scale 0-100

CC(C)Oc1c(Cl)cc(F)c(-n2c(=O)cc(C(F)(F)F)n(C)c2=O)c1NC(=O)c1ccc2ccccc2c1 [2-197] was tested, and the “Pre-emerge Herbicidal Activity AMARE” value ([1]; 63 g ai/ha) was 100, the “Pre-emerge Herbicidal Activity AMARE” value ([1]; 250 g ai/ha) was 100 and the “Pre-emerge Herbicidal Activity ECHCG” value ([2]; 63 g ai/ha) was 0. For the same molecule, the “Pre-emerge Herbicidal Activity ECHCG” value ([2]; 250 g ai/ha) was 50, the “Pre-emerge Herbicidal Activity AMBEL” value ([3]; 63 g ai/ha) was 100 and the “Pre-emerge Herbicidal Activity AMBEL” value ([3]; 250 g ai/ha) was 100. For the same molecule, the “Pre-emerge Herbicidal Activity SETVI” value ([4]; 63 g ai/ha) was 50, the “Pre-emerge Herbicidal Activity SETVI” value ([4]; 250 g ai/ha) was 100 and the “Pre-emerge Herbicidal Activity IPOHE” value ([5]; 63 g ai/ha) was 30. The “Pre-emerge Herbicidal Activity IPOHE” value ([5]; 250 g ai/ha) was 50, the “Pre-emerge Herbicidal Activity SORHA” value ([6]; 63 g ai/ha) was 0 and the “Pre-emerge Herbicidal Activity SORHA” value ([6]; 250 g ai/ha) was 20. For the same molecule, the “Pre-emerge Herbicidal Activity CHEAL” value ([7]; 63 g ai/ha) was 100, the “Pre-emerge Herbicidal Activity CHEAL” value ([7]; 250 g ai/ha) was 100 and the “Pre-emerge Herbicidal Activity DIGSA” value ([8]; 63 g ai/ha) was 80. For the same molecule, the “Pre-emerge Herbicidal Activity DIGSA” value ([8]; 250 g ai/ha) was 100, the “Pre-emerge Herbicidal Activity CASOB” value ([9]; 63 g ai/ha) was 0 and the “Pre-emerge Herbicidal Activity CASOB” value ([9]; 250 g ai/ha) was 50. For the same molecule, the “Pre-emerge Herbicidal Activity ABUTH” value ([10]; 63 g ai/ha) was 90, the “Pre-emerge Herbicidal Activity ABUTH” value ([10]; 250 g ai/ha) was 100 and the “Pre-emerge Herbicidal Activity CORN” value ([11]; 63 g ai/ha) was 0. The “Pre-emerge Herbicidal Activity CORN” value ([11]; 250 g ai/ha) was 0, the “Pre-emerge Herbicidal Activity RICE” value ([12]; 63 g ai/ha) was 30 and the “Pre-emerge Herbicidal Activity RICE” value ([12]; 250 g ai/ha) was 80. The “phytotoxicity rating ECHCG” value ([13]; 63 g ai/ha) was 0, the “phytotoxicity rating ECHCG” value ([13]; 250 g ai/ha) was 20 and the “phytotoxicity rating SETVI” value ([14]; 63 g ai/ha) was 10. The “phytotoxicity rating SETVI” value ([14]; 250 g ai/ha) was 20, the “phytotoxicity rating IPOHE” value ([15]; 63 g ai/ha) was 100 and the “phytotoxicity rating IPOHE” value ([15]; 250 g ai/ha) was 90. The “phytotoxicity rating SORHA” value ([16]; 63 g ai/ha) was 0, the “phytotoxicity rating SORHA” value ([16]; 250 g ai/ha) was 50 and the “phytotoxicity rating CHEAL” value ([17]; 63 g ai/ha) was 100. The “phytotoxicity rating CHEAL” value ([17]; 250 g ai/ha) was 100, the “phytotoxicity rating DIGSA” value ([18]; 63 g ai/ha) was 10 and the “phytotoxicity rating DIGSA” value ([18]; 250 g ai/ha) was 10. The “phytotoxicity rating AMARE” value ([19]; 63 g ai/ha, rating scale 0-100 (0 no damage, 100 complete death)) was 100, the “phytotoxicity rating AMARE” value [19, 24] was 100 and the “phytotoxicity rating CASOB” value ([20]; 63 g ai/ha) was 80. The “phytotoxicity rating CASOB” value ([20]; 250 g ai/ha) was 80, the “phytotoxicity rating ABUTH” value ([21]; 63 g ai/ha) was 100 and the “phytotoxicity rating ABUTH” value ([21]; 250 g ai/ha) was 100. For the same molecule, the “phytotoxicity rating CORN (crop damage)” value ([22]; 63 g ai/ha) was 10, the “phytotoxicity rating CORN (crop damage)” value ([22]; 250 g ai/ha) was 10 and the “phytotoxicity rating RICE (crop damage)” value ([23]; 63 g ai/ha) was 20. The “phytotoxicity rating RICE (crop damage)” value ([23]; 250 g ai/ha) was 30.
In the case of Cn1c(C(F)(F)F)cc(=O)n(-c2c(F)cc(OC(F)F)cc2NC(=O)c2ccc3ccccc3c2)c1=O [2-148], the “phytotoxicity rating AMARE” value ([1]; 63 g ai/ha) is reported as 100, the “phytotoxicity rating AMARE” value ([1]; 250 g ai/ha) is reported as 100 and the “phytotoxicity rating ECHCG” value ([2]; 63 g ai/ha) is reported as 90. For the same molecule, the “phytotoxicity rating ECHCG” value ([2]; 250 g ai/ha) was 100, the “phytotoxicity rating AMBEL” value ([3]; 63 g ai/ha) was 0 and the “phytotoxicity rating AMBEL” value ([3]; 250 g ai/ha) was 100. For the same molecule, the “phytotoxicity rating SETVI” value ([4]; 63 g ai/ha) was 80, the “phytotoxicity rating SETVI” value ([4]; 250 g ai/ha) was 95 and the “phytotoxicity rating IPOHE” value ([5]; 63 g ai/ha) was 50. The “phytotoxicity rating IPOHE” value ([5]; 250 g ai/ha) was 99, the “phytotoxicity rating SORHA” value ([6]; 63 g ai/ha) was 0 and the “phytotoxicity rating SORHA” value ([6]; 250 g ai/ha) was 30. For the same molecule, the “phytotoxicity rating CHEAL” value ([7]; 63 g ai/ha) was 100, the “phytotoxicity rating CHEAL” value ([7]; 250 g ai/ha) was 100 and the “phytotoxicity rating DIGSA” value ([8]; 63 g ai/ha) was 95. For the same molecule, the “phytotoxicity rating DIGSA” value ([8]; 250 g ai/ha) was 100, the “phytotoxicity rating CASOB” value ([9]; 63 g ai/ha) was 50 and the “phytotoxicity rating CASOB” value ([9]; 250 g ai/ha) was 95. The “phytotoxicity rating ABUTH” value ([10]; 63 g ai/ha) was 100, the “phytotoxicity rating ABUTH” value ([10]; 250 g ai/ha) was 100 and the “phytotoxicity rating CORN (crop damage)” value ([11]; 63 g ai/ha) was 0. The “phytotoxicity rating CORN (crop damage)” value ([11]; 250 g ai/ha) was 0, the “phytotoxicity rating RICE (crop damage)” value ([12]; 63 g ai/ha) was 0 and the “phytotoxicity rating RICE (crop damage)” value ([12]; 250 g ai/ha) was 60. The ECHCG phytotoxicity rating ([13]; 63 g ai/ha) was 50, the ECHCG phytotoxicity rating ([13]; 250 g ai/ha) was 20 and the SETVI phytotoxicity rating ([14]; 63 g ai/ha) was 50. It also gave an SETVI phytotoxicity rating ([14]; 250 g ai/ha) of 40, an IPOHE phytotoxicity rating ([15]; 63 g ai/ha) of 80 and an IPOHE phytotoxicity rating ([15]; 250 g ai/ha) of 90. For the same molecule, the SORHA phytotoxicity rating ([16]; 63 g ai/ha) was 0, the SORHA phytotoxicity rating ([16]; 250 g ai/ha) was 10 and the CHEAL phytotoxicity rating ([17]; 63 g ai/ha) was 100. For the same molecule, the CHEAL phytotoxicity rating ([17]; 250 g ai/ha) was 100, the DIGSA phytotoxicity rating ([18]; 63 g ai/ha) was 40 and the DIGSA phytotoxicity rating ([18]; 250 g ai/ha) was 40. The AMARE phytotoxicity rating ([19]; 63 g ai/ha, rating scale 0-100) was 100, the AMARE phytotoxicity rating [19, 24] was 90 and the CASOB phytotoxicity rating ([20]; 63 g ai/ha) was 95. For the same molecule, the CASOB phytotoxicity rating ([20]; 250 g ai/ha) was 100, the ABUTH phytotoxicity rating ([21]; 63 g ai/ha) was 100 and the ABUTH phytotoxicity rating ([21]; 250 g ai/ha) was 100. For the same molecule, the “CORN phytotoxicity rating (crop damage)” value ([22]; 63 g ai/ha) was 25, the “CORN phytotoxicity rating (crop damage)” value ([22]; 250 g ai/ha) was 30 and the “RICE phytotoxicity rating (crop damage)” value ([23]; 63 g ai/ha) was 0. The “RICE phytotoxicity rating (crop damage)” value ([23]; 250 g ai/ha) was 10.
